From patent publication US11944605B2, “Rapamycin analogs and uses thereof” (Janssen Pharmaceutica NV, priority 2018, dated 2024)

Columns and labels:
Assay type in all cases: cell-based
mTORC1 over mTORC2 = test: mTORC1 selectivity over mTORC2 at 24 hrs (Western blot based pS6K1 and pAKT assay); conditions: 24 hrs
Description: (§1) Western Blot Based pS6K1 and pAKT Assay at 24 and 48 Hour Timepoints
(§2) 1. Seed six well plate with 500,000 PC3 cells per well and incubate for 20˜24 hour.
(§3) 2. Add compounds into the cell plate. Incubate for 24 to 48 hours.
(§4) 4. Plate is placed on ice and the media is removed via aspiration. The wells are washed with 1 mL of 1× PBS and then fully aspirated.
(§5) 5. 110 μL of 1% Triton Lysis Buffer is added and each well is scraped vigorously.
(§6) 6. Cell homogenates are transferred to 1.5 mL eppendorf tubes on ice and spun down at 4° C. for 10 minutes at 10,000 rpm.
(§7) 9. The membranes were washed 3× with TBS-T with a 5 minute incubation between each wash then incubated with secondary antibody (LiCor IRDye 800 Donkey Anti Rabbit) for at least 30 minutes.
(§8) 10. The membranes were washed 3× with TBS-T with a 5 minute incubation between each wash.
(§9) 11. The gels were then incubated for 5 minutes with PBS at room temperature then imaged using a Li-Cor.
“N/A” stands for “not assayed.”

[1] = tested on: mTORC1 pathway (pS6K1 T389) in PC3 cells; test: Western blot, mTORC1 pathway (pS6K1) in PC3 cells; conditions: PC3 cells, 24 hours
Description: as §1, §2, §3, §4, §5, §6, §7, §8, §9
(§10) The methods employed were substantially similar to those described above. Compounds were evaluated in PC3 cells, Jurkat cells, wild-type mouse embryotic fibroblast (MEF) cells, tuberous sclerosis 2 (TSC2) negative (TSC −/−) MEF cells, and tuberous sclerosis 2 (TSC2) positive (TSC +/+) MEF cells. Cells were incubated with compounds of the present invention for various time periods (e.g., 5 minutes, 15 minutes, 30 minutes, 90 minutes, 24 hours, or 48 hours), and evaluated according to known methodologies, such as those herein described.

[2] = tested on: mTORC2 pathway (Akt phosphorylation) in PC3 cells; test: Western blot, mTORC2 pathway (pAkt) in PC3 cells; conditions: 24 hours
Description: as §1, §2, §3, §4, §5, §6, §7, §8, §9, §10

[3] = tested on: pS6K1 (p-p70 S6 Kinase (Thr389)) in MCF-7 cells; test: AlphaLISA Ultra pS6K1 Assay; conditions: Homo sapiens, 1.5 h; MCF7 cells, 90 min
Procedure, shortened: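 MCF-7 cells were seeded for 20–24 h, refed with fresh medium for 2 h, then treated with compound for 90 min at 0.5% final DMSO. Lysates were frozen at −80 °C, thawed and assayed by AlphaLISA with acceptor then donor beads, 2 h each.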

Row | SMILES | mTORC1 selective @ 24 hrs (mTORC1 over mTORC2) | inhibition of the mTORC1 pathway [1] | inhibition of mTORC2 (Akt phosphorylation) [2] | IC50 [3]
1 | CO[C@@H]1C[C@H](C[C@@H](C)[C@@H]2CC(=O)[C@H](C)/C=C(\C)[C@@H](O)[C@@H](OC)C(=O)[C@H](C)C[C@H](C)/C=C/C=C/C=C(\C)[C@@H](OCC(CO)CO)C[C@@H]3CC[C@@H](C)[C@@](O)(O3)C(=O)C(=O)N3CCCC[C@H]3C(=O)O2)CC[C@H]1O [I-5] | YES | strong inhibition | do not inhibit | 
2 | CO[C@@H]1C[C@H](C[C@@H](C)[C@@H]2CC(=O)[C@H](C)/C=C(\C)[C@@H](O)[C@@H](OC)C(=O)[C@H](C)C[C@H](C)/C=C/C=C/C=C(\C)[C@@H](OCCCC(=O)N(C)C)C[C@@H]3CC[C@@H](C)[C@@](O)(O3)C(=O)C(=O)N3CCCC[C@H]3C(=O)O2)CC[C@H]1OCCO [I-62, 4-[[(23E, 25E,27E,28E,35R,36S,37R,38R,40S,42S,44S,45S,46R,47R,57R)-46,57-dihydroxy-45-[(1R)-2-[(1S, 3R,4R)-4-(2-hydroxyethoxy)-3-methoxy-cyclohexyl]-1-methyl-ethyl]-47-methoxy-35, 36,37,38,48,49-hexamethyl-50,51,52,53,54-pentaoxo-69,70-dioxa-58-azatricyclohexatriaconta-23, 25,27(48),28(49)-tetraen-44-yl]oxy]-N,N-dimethyl-butanamide] | YES | strong inhibition | do not inhibit | 1 to 10 nM
3 | CO[C@@H]1CC(C[C@@H](C)C2CC(=O)[C@H](C)/C=C(\C)[C@@H](O)[C@@H](OC)C(=O)[C@H](C)C[C@H](C)/C=C/C=C/C=C(\C)[C@@H](OCCOCC(F)(F)F)C[C@@H]3CC[C@@H](C)[C@@](O)(O3)C(=O)C(=O)N3CCCC[C@H]3C(=O)O2)CC[C@H]1OCCO (stereo partly drawn) [I-71, (21E,23E,25E,26E,33R,34S,35R,36R,38S,40S,42S,43S,44R,45R,54R)-44, 54-dihydroxy-43-[(1R)-2-[(1S,3R,4R)-4-(2-hydroxyethoxy)-3-methoxy-cyclohexyl]-1-methyl-ethyl]-45-methoxy-33, 34,35,36,46,47-hexamethyl-42-[2-(2,2,2-trifluoroethoxy)ethoxy]-65,66-dioxa-56-azatricyclohexatriaconta-21,23,25(46),26(47)-tetraene-48, 49,50,51,52-pentone] | YES | strong inhibition | do not inhibit | 0.1 to 1 nM
4 | CO[C@@H]1C[C@H](C[C@@H](C)[C@@H]2CC(=O)[C@H](C)/C=C(\C)[C@@H](O)[C@@H](OC)C(=O)[C@H](C)C[C@H](C)/C=C/C=C/C=C(\C)[C@@H](OCC3COCCOCCOCCO3)C[C@@H]3CC[C@@H](C)[C@@](O)(O3)C(=O)C(=O)N3CCCC[C@H]3C(=O)O2)CC[C@H]1O (stereo partly drawn) [I-112, (28E,30E,32E,33E,36R,37S,38R,39R,41S,43S,45S,46S,48R,49R,58R)-48, 58-dihydroxy-46-[(1R)-2-[(1S,3R,4R)-4-hydroxy-3-methoxy-cyclohexyl]-1-methyl-ethyl]-49-methoxy-36, 37,38,39,50,51-hexamethyl-45-(1,4,7,10-tetraoxacyclododec-2-ylmethoxy)-72, 73-dioxa-59-azatricyclohexatriaconta-28,30,32(50),33(51)-tetraene-52, 53,54,55,56-pentone] | YES |  |  | 0.1 to 1 nM
5 | CO[C@@H]1C[C@H](C[C@@H](C)[C@@H]2CC(=O)[C@H](C)/C=C(\C)[C@@H](O)[C@@H](OC)C(=O)[C@H](C)C[C@H](C)/C=C/C=C/C=C(\C)[C@H](OCCOCCOCCOCCO)C[C@@H]3CC[C@@H](C)[C@@](O)(O3)C(=O)C(=O)N3CCCC[C@H]3C(=O)O2)CC[C@H]1OCCO [I-114, (21E,23E,25E,26E,38R,39S,40R,41R,43S,45S,47R,48S,49R,50R,59R)-49, 59-dihydroxy-47-[2-[2-[2-(2-hydroxyethoxy)ethoxy]ethoxy]ethoxy]-48-[(1R)-2-[(1S,3R, 4R)-4-(2-hydroxyethoxy)-3-methoxy-cyclohexyl]-1-methyl-ethyl]-50-methoxy-38,39,40,41,51, 52-hexamethyl-70,71-dioxa-60-azatricyclohexatriaconta-21,23,25(51),26(52)-tetraene-53, 54,55,56,57-pentone] | YES |  |  | 1 to 10 nM
6 | CO[C@@H]1C[C@H](C[C@@H](C)[C@@H]2CC(=O)[C@H](C)/C=C(\C)[C@@H](O)[C@@H](OC)C(=O)[C@H](C)C[C@H](C)/C=C/C=C/C=C(\C)[C@H](OCCOCCO)C[C@@H]3CC[C@@H](C)[C@@](O)(O3)C(=O)C(=O)N3CCCC[C@H]3C(=O)O2)CC[C@H]1OCCO [I-116, (21E,23E,25E,26E,34R,35S,36R,37R,39S,41S,43R,44S,45R,46R,55R)-45, 55-dihydroxy-43-[2-(2-hydroxyethoxy)ethoxy]-44-[(1R)-2-[(1S,3R, 4R)-4-(2-hydroxyethoxy)-3-methoxy-cyclohexyl]-1-methyl-ethyl]-46-methoxy-34,35,36,37,47,48-hexamethyl-66,67-dioxa-56-azatricyclohexatriaconta-21, 23,25(47),26(48)-tetraene-49,50,51,52,53-pentone] | YES |  |  | 0.1 to 1 nM
7 | COCCOCCO[C@@H]1C[C@@H]2CC[C@@H](C)[C@@](O)(O2)C(=O)C(=O)N2CCCC[C@H]2C(=O)O[C@H]([C@H](C)C[C@@H]2CC[C@@H](O)[C@H](OC)C2)CC(=O)[C@H](C)/C=C(\C)[C@@H](O)[C@@H](OC)C(=O)[C@H](C)C[C@H](C)/C=C/C=C/C=C/1C [I-119, (22E,24E,26E,27E,33R,34S,35R,36R,38S,40S,43S,44R,45R,54R)-44,54-dihydroxy-43-[(1R)-2-[(1S, 3R,4R)-4-hydroxy-3-methoxy-cyclohexyl]-1-methyl-ethyl]-45-methoxy-42-[R-2-(2-methoxyethoxy)ethoxy]-33, 34,35,36,46,47-hexamethyl-64,65-dioxa-55-azatricyclohexatriaconta-22, 24,26(46),27(47)-tetraene-48,49,50,51,52-pentone] | YES |  |  | < 0.1 nM
8 | COCCOCCO[C@H]1C[C@@H]2CC[C@@H](C)[C@@](O)(O2)C(=O)C(=O)N2CCCC[C@H]2C(=O)O[C@H]([C@H](C)C[C@@H]2CC[C@@H](O)[C@H](OC)C2)CC(=O)[C@H](C)/C=C(\C)[C@@H](O)[C@@H](OC)C(=O)[C@H](C)C[C@H](C)/C=C/C=C/C=C/1C [I-120, (22E,24E,26E,27E,33R,34S,35R,36R,38S,40S,43S,44R,45R,54R)-44, 54-dihydroxy-43-[(1R)-2-[(1S,3R,4R)-4-hydroxy-3-methoxy-cyclohexyl]-I-methyl-ethyl]-45-methoxy-42-[S-2-(2-methoxyethoxy)ethoxy]-33,34,35,36,46,47-hexamethyl-64,65-dioxa-55-azatricyclohexatriaconta-22, 24,26(46),27(47)-tetraene-48,49,50,51,52-pentone] | YES |  |  | < 0.1 nM
9 | CO[C@H]1C[C@@H]2CC[C@@H](C)[C@@](O)(O2)C(=O)C(=O)N2CCCC[C@H]2C(=O)O[C@H]([C@H](C)C[C@@H]2CC[C@@H](OP(C)(C)=O)[C@H](OC)C2)CC(=O)[C@H](C)/C=C(\C)[C@@H](O)[C@@H](OC)C(=O)[C@H](C)C[C@H](C)/C=C/C=C/C=C/1C [ridaforolimus, reference compound] |  | strong inhibition | dose dependent inhibition | 
10 | CO[C@H]1C[C@@H]2CC[C@@H](C)[C@@](O)(O2)C(=O)C(=O)N2CCCC[C@H]2C(=O)O[C@H]([C@H](C)C[C@@H]2CC[C@@H](OC(=O)C(C)(CO)CO)[C@H](OC)C2)CC(=O)[C@H](C)/C=C(\C)[C@@H](O)[C@@H](OC)C(=O)[C@H](C)C[C@H](C)/C=C/C=C/C=C/1C [temsirolimus, reference compound] |  | strong inhibition | dose dependent inhibition | 
